Measured values reported in PubChem BioAssay AID1963833 (Molecular Pharmacology Branch, DTP, NCI, 2024).

Tested on: 883617-216-R-J1-PDC complex spheroid viability
Assay: Anticancer human tumor 883617-216-R-J1-PDC patient-derived bladder carcinoma cell line growth inhibition [POLQ]
Conditions: for IC50: curve of first compound; for viability, T/C: stronger effect = lower value
How it was run: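 Patient-derived tumour cells were co-cultured with HUVEC and mesenchymal stem cells as multicellular spheroids at 37 °C. They were treated with POLQ inhibitors (novobiocin, ART-558, RP6685) alone or combined with other agents. Top concentrations were at or near clinical Cmax (otherwise 10 microM; SN-38 at 1 microM), decreasing in half-log steps.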

[1] = second compound 0.0316 µM, first compound 0.0316 µM
[2] = second compound 0.0316 µM, first compound 0.1 µM
[3] = second compound 0.0316 µM, first compound 0.316 µM
[4] = second compound 0.0316 µM, first compound 1 µM
[5] = second compound 0.0316 µM, first compound 3.16 µM
[6] = second compound 0.0316 µM, first compound 10 µM
[7] = second compound 0.1 µM, first compound 0.0316 µM
[8] = second compound 0.1 µM, first compound 0.1 µM
[9] = second compound 0.1 µM, first compound 0.316 µM
[10] = second compound 0.1 µM, first compound 1 µM
[11] = second compound 0.1 µM, first compound 3.16 µM
[12] = second compound 0.1 µM, first compound 10 µM
[13] = second compound 0.316 µM, first compound 0.0316 µM
[14] = second compound 0.316 µM, first compound 0.1 µM
[15] = second compound 0.316 µM, first compound 0.316 µM
[16] = second compound 0.316 µM, first compound 1 µM
[17] = second compound 0.316 µM, first compound 3.16 µM
[18] = second compound 0.316 µM, first compound 10 µM
[19] = second compound 1 µM, first compound 0.0316 µM
[20] = second compound 1 µM, first compound 0.1 µM
[21] = second compound 1 µM, first compound 0.316 µM
[22] = second compound 1 µM, first compound 1 µM
[23] = second compound 1 µM, first compound 3.16 µM
[24] = second compound 1 µM, first compound 10 µM
[25] = second compound 3.16 µM, first compound 0.0316 µM
[26] = second compound 3.16 µM, first compound 0.1 µM
[27] = second compound 3.16 µM, first compound 0.316 µM
[28] = second compound 3.16 µM, first compound 1 µM
[29] = second compound 3.16 µM, first compound 3.16 µM
[30] = second compound 3.16 µM, first compound 10 µM
[31] = second compound 10 µM, first compound 0.0316 µM
[32] = second compound 10 µM, first compound 0.1 µM
[33] = second compound 10 µM, first compound 0.316 µM
[34] = second compound 10 µM, first compound 1 µM
[35] = second compound 10 µM, first compound 3.16 µM
[36] = second compound 10 µM, first compound 10 µM
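Note: spheroids exposed to compounds for seven days before readout.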
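Throughout, for viability, T/C: 100% = DMSO vehicle control viability.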

COc1ccc([C@@H](O)c2cc(-c3ncnc4cc(N5CCOCC5)ccc34)c(F)cc2Cl)nn1 + COC1C(OC(N)=O)C(O)C(Oc2ccc3c(O)c(NC(=O)c4ccc(O)c(CC=C(C)C)c4)c(=O)oc3c2C)OC1(C)C
IC50 (second compound 0.0316 µM): 2900 nM | IC50 (second compound 0.1 µM): 1800 nM | IC50 (second compound 0.316 µM): 1940 nM | IC50 (second compound 1 µM): 2440 nM | IC50 (second compound 3.16 µM): 2440 nM | IC50 (second compound 10 µM): 3210 nM | viability, T/C [1]: 92.5% | viability, T/C [2]: 104% | viability, T/C [3]: 94.5% | viability, T/C [4]: 77.5% | viability, T/C [5]: 47.9% | viability, T/C [6]: 39.1% | viability, T/C [7]: 98.5% | viability, T/C [8]: 82.2% | viability, T/C [9]: 104% | viability, T/C [10]: 61.3% | viability, T/C [11]: 45.2% | viability, T/C [12]: 33% | viability, T/C [13]: 93.9% | viability, T/C [14]: 89.2% | viability, T/C [15]: 76.8% | viability, T/C [16]: 56.1% | viability, T/C [17]: 46% | viability, T/C [18]: 28.2% | viability, T/C [19]: 108% | viability, T/C [20]: 85.8% | viability, T/C [21]: 80.8% | viability, T/C [22]: 61.3% | viability, T/C [23]: 45.1% | viability, T/C [24]: 33.1% | viability, T/C [25]: 95.9% | viability, T/C [26]: 95.2% | viability, T/C [27]: 78.3% | viability, T/C [28]: 65.5% | viability, T/C [29]: 45.4% | viability, T/C [30]: 33.3% | viability, T/C [31]: 87% | viability, T/C [32]: 79.3% | viability, T/C [33]: 86.4% | viability, T/C [34]: 68.1% | viability, T/C [35]: 51.3% | viability, T/C [36]: 34.2%

O=C(Nc1ccc(O)c(NS(=O)(=O)c2ccc(F)cc2)c1)c1ccc(-c2ccccc2)cc1 + Cc1cccc(N(C)C(=O)C2C(O)CCN2c2nc(C)cc(C(F)(F)F)c2C#N)c1
IC50 (second compound 0.0316 µM): > 10000 nM | IC50 (second compound 0.1 µM): > 10000 nM | IC50 (second compound 0.316 µM): > 10000 nM | IC50 (second compound 1 µM): > 10000 nM | IC50 (second compound 3.16 µM): > 10000 nM | IC50 (second compound 10 µM): > 10000 nM | viability, T/C [1]: 96.5% | viability, T/C [2]: 90.4% | viability, T/C [3]: 86.6% | viability, T/C [4]: 91.7% | viability, T/C [5]: 81.9% | viability, T/C [6]: 65.5% | viability, T/C [7]: 98.6% | viability, T/C [8]: 98% | viability, T/C [9]: 96.5% | viability, T/C [10]: 80% | viability, T/C [11]: 79.3% | viability, T/C [12]: 66.3% | viability, T/C [13]: 97.6% | viability, T/C [14]: 103% | viability, T/C [15]: 95.3% | viability, T/C [16]: 93.1% | viability, T/C [17]: 83.3% | viability, T/C [18]: 68.2% | viability, T/C [19]: 97.9% | viability, T/C [20]: 99.7% | viability, T/C [21]: 99.1% | viability, T/C [22]: 82.9% | viability, T/C [23]: 88.3% | viability, T/C [24]: 71.1% | viability, T/C [25]: 94.6% | viability, T/C [26]: 103% | viability, T/C [27]: 85.3% | viability, T/C [28]: 105% | viability, T/C [29]: 80.8% | viability, T/C [30]: 75.4% | viability, T/C [31]: 105% | viability, T/C [32]: 102% | viability, T/C [33]: 94.2% | viability, T/C [34]: 91% | viability, T/C [35]: 81.5% | viability, T/C [36]: 57.1%

CC(=O)O[C@H]1C(=O)[C@@]2(C)[C@H]([C@H](OC(=O)c3ccccc3)[C@]3(O)C[C@H](OC(=O)[C@H](O)[C@@H](NC(=O)c4ccccc4)c4ccccc4)C(C)=C1C3(C)C)[C@]1(OC(C)=O)CO[C@@H]1C[C@@H]2O + Nc1ccc(C#CCN(C(=O)Cc2ncc(C(F)(F)F)cc2C(F)(F)F)c2ccc(F)cc2)nn1
IC50 (second compound 0.0316 µM): 11.9 nM | IC50 (second compound 0.1 µM): 10.5 nM | IC50 (second compound 0.316 µM): < 9.49 nM | IC50 (second compound 1 µM): < 9.49 nM | IC50 (second compound 3.16 µM): 10.4 nM | IC50 (second compound 10 µM): 11.6 nM | viability, T/C (second compound 0.0316 µM, first compound 0.00949 µM): 54.8% | viability, T/C (second compound 0.0316 µM, first compound 0.03 µM): 30.9% | viability, T/C (second compound 0.0316 µM, first compound 0.0949 µM): 24.9% | viability, T/C (second compound 0.0316 µM, first compound 0.3 µM): 22.9% | viability, T/C (second compound 0.0316 µM, first compound 0.949 µM): 25.1% | viability, T/C (second compound 0.0316 µM, first compound 3 µM): 22.2% | viability, T/C (second compound 0.1 µM, first compound 0.00949 µM): 52.2% | viability, T/C (second compound 0.1 µM, first compound 0.03 µM): 27.6% | viability, T/C (second compound 0.1 µM, first compound 0.0949 µM): 31.1% | viability, T/C (second compound 0.1 µM, first compound 0.3 µM): 17.8% | viability, T/C (second compound 0.1 µM, first compound 0.949 µM): 18.7% | viability, T/C (second compound 0.1 µM, first compound 3 µM): 24.2% | viability, T/C (second compound 0.316 µM, first compound 0.00949 µM): 51.6% | viability, T/C (second compound 0.316 µM, first compound 0.03 µM): 31.1% | viability, T/C (second compound 0.316 µM, first compound 0.0949 µM): 21.7% | viability, T/C (second compound 0.316 µM, first compound 0.3 µM): 24.8% | viability, T/C (second compound 0.316 µM, first compound 0.949 µM): 34.9% | viability, T/C (second compound 0.316 µM, first compound 3 µM): 36% | viability, T/C (second compound 1 µM, first compound 0.00949 µM): 49.1% | viability, T/C (second compound 1 µM, first compound 0.03 µM): 26.9% | viability, T/C (second compound 1 µM, first compound 0.0949 µM): 23.5% | viability, T/C (second compound 1 µM, first compound 0.3 µM): 20% | viability, T/C (second compound 1 µM, first compound 0.949 µM): 23% | viability, T/C (second compound 1 µM, first compound 3 µM): 31.8% | viability, T/C (second compound 3.16 µM, first compound 0.00949 µM): 50.5% | viability, T/C (second compound 3.16 µM, first compound 0.03 µM): 43.2% | viability, T/C (second compound 3.16 µM, first compound 0.0949 µM): 27.8% | viability, T/C (second compound 3.16 µM, first compound 0.3 µM): 28% | viability, T/C (second compound 3.16 µM, first compound 0.949 µM): 20.7% | viability, T/C (second compound 3.16 µM, first compound 3 µM): 23.5% | viability, T/C (second compound 10 µM, first compound 0.00949 µM): 53.8% | viability, T/C (second compound 10 µM, first compound 0.03 µM): 31.9% | viability, T/C (second compound 10 µM, first compound 0.0949 µM): 27.2% | viability, T/C (second compound 10 µM, first compound 0.3 µM): 26.5% | viability, T/C (second compound 10 µM, first compound 0.949 µM): 28% | viability, T/C (second compound 10 µM, first compound 3 µM): 24.6%
